# Results from PubChem BioAssay (NCI).
# Where “and” joins values, the source holds several entries; their conditions need not be identical. Equal values may be shown once.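 Briefly, cells in 96-well plates were exposed to five compound concentrations for 48 h, and endpoints were estimated by linear interpolation. Here, GI50 denotes the concentration required for 50% inhibition of growth. At the TGI there is no net growth.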
# What was measured:
# Assay in all cases: DTP human tumour cell line panel, 48 h
# OVCAR-8 ovarian = system: OVCAR-8 ovarian
# NCI-H23 lung = system: NCI-H23 lung
# PC-3 prostate = system: PC-3 prostate
# HCT-15 colon = system: HCT-15 colon
# MALME-3M melanoma = system: MALME-3M melanoma
# RXF 393 renal = system: RXF 393 renal
# SR leukemia = system: SR leukemia
# HOP-92 NSCLC = system: HOP-92 NSCLC
# A549 NSCLC = system: A549 NSCLC
# T-47D breast = system: T-47D breast
SMILES,TGI (OVCAR-8 ovarian),TGI (NCI-H23 lung),TGI (PC-3 prostate) [µM],TGI (HCT-15 colon) [µM],TGI (MALME-3M melanoma) [µM],TGI (RXF 393 renal) [µM],TGI (SR leukemia) [µM],TGI (HOP-92 NSCLC) [µM],TGI (A549 NSCLC),TGI (T-47D breast) [µM],GI50 (OVCAR-8 ovarian) [µM],GI50 (NCI-H23 lung) [µM],GI50 (RXF 393 renal) [µM],GI50 (SR leukemia) [µM],GI50 (MALME-3M melanoma) [µM]
CCC[C@@H]1C(=O)N=C(N)N1C(=O)OCc1ccccc1,> 100 µM,> 100 µM,> 100,> 100,> 100,> 100,> 100,–,–,–,–,–,–,–,–
COc1ccc(C2=NN=C3C(c4ccccc4)=Nc4ccccc4N3C2)cc1,–,> 100 µM,> 100,> 100,66.3,51.8,49.5,> 100,> 100 µM,–,–,–,–,–,–
CCN(CC)CC(=N)N(CC)c1ccccc1,> 100 µM,> 100 µM,–,> 100,> 100,> 100,–,> 100,> 100 µM,–,–,–,–,–,–
COc1ccc(N2C(=O)C3c4[nH]c5ccccc5c4C4CCCCC4C3C2=O)cc1 (configuration not stated),28.6 µM,> 100 µM,–,> 100,25.8,55.6,25.2,50.3,51.9 µM,–,–,–,–,–,–
Cc1ccc(-n2cc([Si](C)(C)C)nn2)s1,> 100 µM,> 100 µM,> 100,> 100,> 100,–,–,> 100,> 100 µM,> 100,–,–,–,–,–
CC(C)(C)OC(=O)NCC(=O)N1CCN(C(=O)CNC(=O)OC(C)(C)C)CC1,> 100 µM,> 100 µM,> 100,> 100,–,–,> 100,> 100,> 100 µM,> 100,–,–,–,–,–
[N-]=[N+]=Nc1c([N+](=O)[O-])c(=O)n2c3c(cccc13)CCC2,35.1 µM,43.6 µM,30.7,17.8,4.27,–,5.9,30,> 84.5 µM,26.3,–,–,–,–,–
O=C1CSc2cc([N+](=O)[O-])ccc2N1,> 100 µM,> 100 µM,–,> 100,> 100,> 100,–,–,> 100 µM,–,–,–,–,–,–
N#CC(C#N)=C1C(=O)NC(N)=C1C#N,> 100 µM,> 100 µM,> 100,> 100,> 100,> 100,–,> 100,> 100 µM,> 100,–,–,–,–,–
O=C1c2ccccc2C(=O)c2[nH]c(Cc3ccc(F)cc3)nc21,35.3 µM,–,–,21.6,29.6,30.2,55.5,74.6,38.1 µM,–,–,–,–,–,–
C/C=C(/C)C(=O)O[C@H]1[C@H](O)CC(c2ccc3c(c2O)C(O)=C2C(=O)C4(OC)C(O)=C(C(N)=O)C(=O)[C@H](CC(=O)c5ccccc5O)C4CC2[C@@]3(C)OC)O[C@@H]1C (some centres not stated),1.67 µM and 0.713 µM,0.228 µM and 0.067 µM,0.187,18.1,2.87,–,0.355,0.625,4.6 µM and 1.52 µM,8.06,–,–,–,–,–
O=C(O)Cn1cc([N+](=O)[O-])c(=O)c2ccccc21,> 100 µM,> 100 µM,> 100,> 100,> 100,–,> 100,–,> 100 µM,32.8,–,–,–,–,–
Cn1c(=O)c2/c(n(C)c1=O)=N\C=c1\c(=O)n(C)c(=O)n(C)\c1=N\C=2,> 100 µM,> 100 µM,–,> 100,> 100,> 100,–,> 100,> 100 µM,–,–,–,–,–,–
O=C(/C=C\c1cccc2ccccc12)c1cccc2ccccc12,6.01 µM,8.96 µM,–,19.6,36.1,20.1,> 100,–,36.5 µM,–,2.61,2.09,7.46,3.95,–
CC1=C(C)C(=O)C(C2=CC(=O)C=CC2=O)=C(C2=CC(=O)C=CC2=O)C1=O,> 87.7 µM,> 100 µM,> 100,> 100,> 100,> 100,–,> 78.9,> 100 µM,77.5,–,–,–,–,–
CC(=O)[CH-]C(=O)c1ccccc1.CC(=O)[CH-]C(=O)c1ccccc1.CC[O-].O=C1c2ccccc2C(=O)c2c1ccc(O)c2[O-].[Ti+4],> 100 µM,> 100 µM,–,> 100,61,–,–,> 100,> 100 µM,–,–,–,–,–,25.6
CC(=O)N/C(=C\c1ccc(Cc2nc3c([nH]2)C(=O)c2ccccc2C3=O)cc1)c1nc2c([nH]1)C(=O)c1ccccc1C2=O,> 100 µM,> 100 µM,–,–,> 100,> 100,–,> 100,> 100 µM,–,–,–,–,–,–
O=S1Nc2c(Cl)cc(Cl)c(Cl)c2S1 (configuration not stated),> 100 µM,> 100 µM,–,> 100,> 100,> 100,> 100,> 100,> 100 µM,–,–,–,–,–,–
